This is an account of results in patent publication US20260240844A1, “INHIBITORS OF CHD1L AND USES THEREOF” (The Regents of the University of Colorado, a body corporate, priority 2023, published 2026).

One experiment has as its system AIF in SUM149PT cells. The experiment in a line: AIF immunofluorescence in SUM149PT (SUM149) cells. Type of experiment: cell-based. The text has this: CHD1Li-mediated PAR translocation to the cytoplasm activates PARthanatos as a cell death mechanism. Parthanatos is a form a programmed cell death different from apoptosis and known to be mediated by PARP1 overactivation. The unique events occurring during parthanatos are: PARP1 rapid activation, accumulation of PAR and nuclear translocation of apoptosis inducing factor (AIF). Without being bound by any particular theory, accumulation of PAR in the cytoplasm caused by CHD1Li can also mediate parthanatos. To better understand the link between PAR translocation to the cytoplasm and cell death, immunofluorescence to measure the activation of caspase-3 and the subcellular localization of AIF after treatment with SOC drugs and Compound 6 in SUM49PT cells was used. […] Without being bound by any particular theory, this might be caused by the mitochondrial outer membrane permeabilization, which triggers release of mitochondrial proteins like AIF or cytochrome c, activating caspase-3 by its cleavage and leading to apoptosis. […] Moreover, when combining CHD1L inhibition with SOC drugs, the cell death mechanism shifts from apoptosis to parthanatos, evidenced by a significant increase in AIF nuclear translocation and decrease in activation of caspase-3 (FIG. 25D-E).
(§1) The ability of Compounds 12, 15 and 16 to localize AIF was tested in SUM149 (breast cancer) and MDA-MB-231 (TNBC) cell lines. A comparison of the relative distribution of AIF in nuclei (a) versus cytoplasm (b) in SUM149 cells and nuclei (c) versus cytoplasm (d) in MDA-MB-231 cells in the presence of 4 μM Compounds 12, 15 and 16 are shown in FIG. 28. […] Similarly, AIF concentration in the cytoplasm of MDA-MB-231 cells decreased by about 0.5 after administration with Compound 15. After treatment with Compound 16, the relative concentration of AIF in the nuclei of SUM149 cells increased by about 0.5-fold, and the concentration of AIF in the cytoplasm decreased by about 0.4-fold. In MDA-MB-231 cells, the relative concentration of AIF in the cytoplasm decreased by about 0.5-fold, while the concentration of AIF increased in the nuclei by about 0.1-fold.

The test system of another experiment is SUM149PT tumor organoids. The experiment can be described thus: Tumor organoid cytotoxicity (CellTiter Glo 3D), SUM149PT. Type of experiment: cell-based. The conditions noted are these: for calculated mean synergy scores: MDA-MB-231 and SUM149PT; for Mean Synergy Score / IC50: SUM149PT; for IC50: Homo sapiens, read-out: IC50 docetaxel. As to the method: Tumor organoid culture—Cell lines were cultured as tumor organoids by seeding 2,000 to 5,000 cells/well into uncoated 96 well U-bottom Ultra Low Attachment Microplates (Corning) using their corresponding medium.
Luminescence was recorded using the EnVision plate reader (PerkinElmer) and values normalized to the controls using GraphPad Prism.

In the next experiment the target is T1, CHD1L (Homo sapiens, UniProt Q86WJ1).
T1 sequence (Q86WJ1 1-897): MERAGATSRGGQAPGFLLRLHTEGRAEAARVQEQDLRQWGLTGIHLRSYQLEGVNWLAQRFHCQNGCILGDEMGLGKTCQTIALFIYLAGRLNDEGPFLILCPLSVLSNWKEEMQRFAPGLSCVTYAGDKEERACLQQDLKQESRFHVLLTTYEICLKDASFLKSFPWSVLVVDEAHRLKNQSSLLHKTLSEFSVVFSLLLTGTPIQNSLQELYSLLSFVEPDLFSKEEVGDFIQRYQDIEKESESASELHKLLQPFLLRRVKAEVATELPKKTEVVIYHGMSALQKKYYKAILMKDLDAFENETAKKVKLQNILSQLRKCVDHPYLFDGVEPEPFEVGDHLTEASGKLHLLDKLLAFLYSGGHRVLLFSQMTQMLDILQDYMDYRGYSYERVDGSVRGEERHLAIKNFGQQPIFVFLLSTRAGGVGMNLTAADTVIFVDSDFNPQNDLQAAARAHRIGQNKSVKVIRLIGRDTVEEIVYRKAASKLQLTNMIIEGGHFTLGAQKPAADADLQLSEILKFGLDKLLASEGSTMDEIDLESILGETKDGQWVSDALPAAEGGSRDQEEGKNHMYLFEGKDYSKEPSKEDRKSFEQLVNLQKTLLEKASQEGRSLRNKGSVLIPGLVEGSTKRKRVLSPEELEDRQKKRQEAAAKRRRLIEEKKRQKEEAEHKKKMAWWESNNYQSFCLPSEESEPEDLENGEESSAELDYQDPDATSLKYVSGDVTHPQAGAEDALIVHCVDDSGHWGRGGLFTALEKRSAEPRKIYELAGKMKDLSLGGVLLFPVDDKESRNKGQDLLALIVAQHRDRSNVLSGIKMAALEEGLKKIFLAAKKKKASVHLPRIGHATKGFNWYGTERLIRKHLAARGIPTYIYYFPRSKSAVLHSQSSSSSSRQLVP
The experiment in a line: CHD1L trapping (in situ subcellular fractionation, immunofluorescence). The following applies: single agent; SUM149PT + 0.01% MMS 4 h; BC and CRC cells. Type of experiment: cell-based. The text has this:
Other studies on the role of CHD1L used cell lines with knockdown or knockouts of the gene encoding for CHD1L and have never been able to study the result of its enzymatic inhibition.

Another experiment has as its system PAR in SUM149PT cells. The experiment in a line: PAR immunofluorescence (nuclear / cytoplasmic PAR). Type of experiment: cell-based. The text has this:
Inhibition of CHD1L promotes PAR translocation to the cytoplasm. The main role of PARP1 during the DDR is to detect and signal the recruitment of repair machinery to the sites of DNA damage. For that, PARP1/2 catalyze PARylation, which is a pivotal […] protein modification, consisting of the addition of ADP-ribose units to the carboxyl group of acidic residues such as glutamate or aspartate on target proteins by using NAD^+ as substrate. CHD1L is one of the proteins that requires binding to these PAR chains for its activation and subsequent chromatin remodeling. Using immunofluorescence of PAR, the effect of PARPi and CHD1Li on PARylation in SUM149PT cells was investigated. […] In addition, the effect of doxorubicin on nuclear PARylation was reverted by CHD1L inhibition, causing an increase of PAR in the cytoplasm (FIG. 25A-C).

A further experiment concerns MiaPaca2 cells. The experiment in a line: MiaPaca2 cell viability, combination with chemotherapy. Type of experiment: cell-based. The conditions noted are these: MiaPaca2 cells. From the text: The cell viability assays and Bliss synergy analyses are as described above in Examples 1-9 and 11-12.
In another experiment the test system is SW620 Parental cells. The experiment in a line: SW620 Parental cell viability, combination with chemotherapy. Type of experiment: cell-based. The following applies: SW620 cells.
In a further experiment the test system is HCT116 Parental cells. The experiment in a line: HCT116 Parental cell viability, combination with chemotherapy. Type of experiment: cell-based. The following applies: HCT116 cells.
In experiment [1] the test system is MDA-MB-231 tumor organoids. The experiment can be described thus: Tumor organoid cytotoxicity, MDA-MB-231. Type of experiment: cell-based. The following applies: MDA-MB-231. As to the method:
Tumor organoid culture—Cell lines were cultured as tumor organoids by seeding 2,000 to 5,000 cells/well into uncoated 96 well U-bottom Ultra Low Attachment Microplates (Corning) using their corresponding medium. Cell aggregation was then promoted by centrifugation of the plates for 15 min at 1,000 rpm followed by the addition of Matrigel (Corning) to a 2-5% final concentration. Tumor organoids were maintained under standard cell culture conditions for 72 h prior to drug treatment.
Organoids were then transferred to a white solid bottom 96 well plate and incubated with an equal volume of CellTiter Glo 3D reagent (Promega) for 45 min on a shaker at 400 rpm. Luminescence was recorded using the EnVision plate reader (PerkinElmer) and values normalized to the controls using GraphPad Prism.

The subject of a further experiment is Colo678 cells. The experiment can be described thus: Colo678 cell viability, combination with chemotherapy. Type of experiment: cell-based. The following applies: Colo678 cells.
A further experiment relates to AIF in MDA-MB-231 cells. The experiment can be described thus: AIF localization in MDA-MB-231 cells. Type of experiment: cell-based. The following applies: 4 μM. The method, then:
as §1

The test system of another experiment is SW948 tumor organoids. The experiment can be described thus: cells. The following applies: SW948 tumor organoids; combined with Compound 6. As to the method:
ATM is an important protein involved in the initial stages of the DNA damage response. […] ATM mutations are important markers being developed to identify metastatic CRC (mCRC) patients that may be sensitive to DNA damaging chemotherapy.
Synergy was assessed using the Bliss model.

The mark [2] stands for this setting: SUM149PT cells, single agent, 18 h.
[3] abbreviates: SUM149PT tumor organoids, combined with Compound 6.
The mark [4] stands for this setting: Compound 13 combined with Olaparib.
The mark [5] stands for this setting: Compound 13 combined with doxorubicin.

Read-outs that look alike come from different tables or passages of the source.

`CCc1cc2ncc(CN3CCN(c4ccc(C(=O)NC)nc4)CC3)cc2[nH]c1=O` [AZD5305]: in the experiment with AIF in SUM149PT cells (setting [2]), the “cytoplasmic AIF” value is “increase in the AIF intensity in the cytoplasm” and the “nuclear AIF” value is reported as “no translocation of this protein to the nucleus”. Moreover, the “improvement of IC50 potency” value in the experiment on SUM149PT tumor organoids (setting [3]) amounted to 2.7 fold. At CHD1L, the “CHD1L trapping onto chromatin/nucleosomes” value is on record as “did not show CHD1L trapping”. For the same compound, in the experiment with PAR in SUM149PT cells (SUM149PT cells, single agent, 4 h), the “nuclear PAR (PARylation)” value is given as “inhibition of nuclear PARylation”.

As for `Cc1cc(Nc2ccc(NC(=O)Cc3c[nH]c4cc(Cl)ccc34)cc2)nc(N2CCCC2)n1` [Compound 7, 2-(6-chloro-1H-indol-3-yl)-N-(4-((6-methyl-2-(pyrrolidin-1-yl)pyrimidin-4-yl)amino)phenyl)acetamide], the “calculated mean synergy score” value in the experiment on MiaPaca2 cells (combined with 5-FU) is “about 25”; in the experiment on MiaPaca2 cells (combined with SN-38), “about 24.5”.

As to `Cc1cc(Nc2ccc(NC(=O)Cc3cc(Cl)nc4ccccc34)cc2)nc(N2CCCC2)n1` [Compound 8, 2-(2-chloroquinolin-4-yl)-N-(4-((6-methyl-2-(pyrrolidin-1-yl)pyrimidin-4-yl)amino)phenyl)acetamide], the figures for the “calculated mean synergy score” value in the experiment with MiaPaca2 cells (combined with 5-FU) and with MiaPaca2 cells (combined with SN-38) were “about 29.5” and “about 26”, respectively.

As to `Cc1cc(Nc2ccc(NC(=O)/C=C/c3cc(Br)cs3)cc2)nc(N2CCCC2)n1` [Compound 11, (E)-3-(4-bromothiophen-2-yl)-N-(4-((6-methyl-2-(pyrrolidin-1-yl)pyrimidin-4-yl)amino)phenyl)acrylamide], the “calculated mean synergy score” value is on record as “about 24” in the experiment on SW620 Parental cells (72 h, combined with SN-38); “about 43” in the experiment on SW620 Parental cells (combined with 5-FU); “about 14” with HCT116 Parental cells (72 h, combined with SN-38); “about 8” in the experiment on HCT116 Parental cells (combined with 5-FU).

For the compound `Cc1cc(Nc2ccc(NC(=O)c3cc(Br)cs3)cc2)nc(N2CCCC2)n1` [Compound 13, 4-bromo-N-(4-((6-methyl-2-(pyrrolidin-1-yl)pyrimidin-4-yl)amino)phenyl)thiophene-2-carboxamide], the “Mean Synergy Score” value in experiment [1] (Compound 13 combined with 5-FU) turned out to be 23.62; in [1] (setting [4]), 40.44; in experiment [1] (setting [5]) it was 23.62; in the experiment with SUM149PT tumor organoids (Compound 13 combined with 5-FU), 23.62; in the experiment with SUM149PT tumor organoids (setting [4]), 69.46; in the experiment with SUM149PT tumor organoids (setting [5]), 42.74. The “calculated mean synergy scores” value is reported as “at least 20” in the experiment on SUM149PT tumor organoids (all combinations with 5-FU or doxorubicin) and “at least 40” in the experiment with SUM149PT tumor organoids (all combinations with Olaparib). For the same compound, the “calculated mean synergy score” value in the experiment on Colo678 cells (72 h, combined with SN-38) is given as “about 41”; with Colo678 cells (combined with 5-FU), “about 12”; with MiaPaca2 cells (combined with 5-FU) it was “about 57”; in the experiment with MiaPaca2 cells (combined with SN-38), “about 18”.

In the case of `Cc1cc(Nc2ccc(NC(=O)Cc3ccc(Br)s3)cc2)nc(N2CCCC2)n1` [Compound 15, 2-(5-bromothiophen-2-yl)-N-(4-((6-methyl-2-(pyrrolidin-1-yl)pyrimidin-4-yl)amino)phenyl)acetamide], the “decrease in AIF in the cytoplasm” value in the experiment with AIF in MDA-MB-231 cells is reported as “about 0.5 fold”; with AIF in SUM149PT cells (SUM149 cells, 4 μM), “about 0.5 fold”. In addition, in the experiment on AIF in SUM149PT cells (SUM149 cells, 4 μM), the “increase in AIF in the nucleus” value was “about 0.5 fold”.

A word on the IC50: it is the concentration that inhibits the measured activity by half. Regarding `CC(=O)O[C@@]12CO[C@@H]1C[C@H](O)[C@@]1(C)C(=O)[C@H](O)C3=C(C)[C@@H](OC(=O)[C@H](O)[C@@H](NC(=O)OC(C)(C)C)c4ccccc4)C[C@@](O)([C@@H](OC(=O)c4ccccc4)[C@H]21)C3(C)C` [docetaxel], the IC50 was determined as 0.5 µM in the experiment with SUM149PT tumor organoids (setting [3]) and 55 µM in the experiment with SUM149PT tumor organoids (SUM149PT tumor organoids, docetaxel alone). Also, the “increase in potency of the chemotherapy” value in the experiment on SUM149PT tumor organoids (SUM149PT BRCA1 mutant tumor organoids, + 1.9 μM Compound 6) amounted to 110 fold.

Regarding `O=C(O)C(=O)O.[NH-][C@@H]1CCCC[C@H]1[NH-].[Pt+2]` [oxaliplatin], the “increase in potency of the chemotherapy” value with SW948 tumor organoids turned out to be 20 fold.

In the case of PDD00017273, the “nuclear PAR under CHD1L inhibition” value in the experiment on PAR in SUM149PT cells (cells pre-treated 2 hours with 1 μM PARG inhibitor before CHD1Li) is reported as “kept the levels of nuclear PAR similar to control cells”.
